This passage reports IC50 results from patent US20230219963A1, “PYRROLO[2,3-D]PYRIMIDINE DERIVATIVES” (Pfizer Inc., priority 2020, published 2023).

For one test, the system named is IFNg induced pSTATI. The test can be described thus: IFNγ-induced pSTAT1 in human whole blood (CD14+ cells). The class given is cell-based. As to conditions: JAK1/JAK2, read-out: IFNg induced pSTATI, cellular potency IC50. As to the method:
(§1) Human whole blood was collected from healthy donors via vein puncture into Vacutainer collection tubes containing sodium heparin in accordance with Pfizer protocols (Protocol No. GOHW RDP-01) approved by the Shulman Institutional Review Board. Blood was warmed to 37° C. priorto use. Human whole blood was aliquoted (90 μL/well) in 96-well, deep-well, V-bottom plates and treated with compounds (5 μL/well) at different concentrations up to 60 μM (0.2% DMSO final) at 37° C. for 60 minutes. This was followed by a challenge with IFNα (5000 U/mL), IFNγ (100 ng/mL), IL-6 (50 ng/mL), IL-10 (30 ng/mL), IL-12 (30 ng/mL), IL-15 (30 ng/mL), IL-21 (50 ng/mL), IL-23 (25 ng/mL), IL-27 (1000 ng/mL), EPO (2 U/mL), TSLP (50 ng/mL) or PBS and incubated for 15 minutes. Anti-cell surface antibodies were added 15 minutes prior to cytokine stimulation; anti-CD3-BV421 (0.5 μL/well) to IL-6-treated and TSLP-treated samples and anti-CD14-BV421 (0.5 μL/well) to IFNγ-treated samples. Samples were treated with warm 1×Lyse/Fix buffer (700 μL/well) to terminate activation and further incubated at 37° C. for 20 minutes to lyse red blood cells. Plates were centrifuged at 300×g for 5 minutes, supernatant was aspirated, and cells were washed with 800 μL/well of staining buffer (D-PBS containing 0.1% FBS and 0.01% sodium azide). Washed cell pellets were resuspended in 350 μL/well of prechilled 90% methanol and incubated at 4° C. for 30 minutes. After the removal of 90% methanol, cells were washed once with staining buffer. All samples were finally suspended in 150 μL/well of the desired anti-phospho-STAT antibodies at 1:150 dilution in staining buffer; anti-pSTAT1-AF647 in IFNγ treated samples; anti-pSTAT1-AF488 and anti-pSTAT3-AF647 in IL-6-treated samples, anti-pSTAT3-AF647 in IFNα, IL-10, IL-21, IL-23 and IL-27 treated samples, anti-pSTAT4-AF647 in IL-12 treated samples, anti-pSTAT5-AF-647 in EPO, IL-15 and TSLP-treated samples. Human primary keratinocytes were cultured in DermaLife™ medium with supplement kit to expand cell population. Cell passages 2 to 5 were used in the assays. Cells were harvested at ˜80% confluence, suspended in warm DermaLife™ medium, aliquoted (90 μL/well) in 96-well, deep-well, V-bottom plates, and incubated at 37° C. for 30 minutes. Cells were then treated with compounds (0.0003 to 20 μM) for 60 minutes and followed by stimulation with IL-4 (2 ng/mL) or IL-13 (20 ng/mL) at 37° C. for 15 minutes. […]
(§2) After overnight incubation at 4° C., anti-pSTAT stained samples were transferred into 96-well polypropylene U-bottom plates and flow cytometric analysis was performed on a LSR Fortessa™ equipped with a HTS plate loader. […] Background fluorescence was defined using unstimulated cells and a gate was placed at the foot of the peak to include ˜0.5% gated population. […]

A further test deals with IL-10 induced pSTAT3. The test can be described thus: IL-10-induced pSTAT3 in human whole blood (lymphocytes). The class given is cell-based. As to conditions: Lymphocyte, JAK1/TYK2, read-out: IL-10 induced pSTAT3, cellular potency IC50. As to the method:
as §1, §2

By IC50 is commonly meant the concentration that gives 50% inhibition. With `C[C@H](O)CS(=O)(=O)N[C@H]1C[C@@H](N(C)c2ncnc3[nH]ccc23)C1` (single isomer, unassigned) [IA (M2)], the IC50 in the test on IFNg induced pSTATI is 2.16 µM; in the test with IL-10 induced pSTAT3, 0.233 µM.

`C[C@@H](O)CS(=O)(=O)N[C@H]1C[C@@H](N(C)c2ncnc3[nH]ccc23)C1` (single isomer, unassigned) [IC (M3)]: the IC50 was 4.25 µM in the test with IFNg induced pSTATI and 0.488 µM in the test on IL-10 induced pSTAT3.

Consider `CN(c1ncnc2[nH]ccc12)[C@H]1C[C@@H](NS(=O)(=O)CCCO)C1` [IB (M1), 3-Hydroxy-N-(cis-3-(methyl(7H-pyrrolo[2,3-d]pyrimidin-4-yl)amino)cyclobutyl)propane-1-sulfonamide], for which the IC50 was 1.95 µM in the test on IFNg induced pSTATI and 0.675 µM in the test on IL-10 induced pSTAT3.
